Experimental findings from US10851064B2, “ACSS2 inhibitors and methods of use thereof” (METABOMED LTD., priority 2017, dated 2020) are described below.

Structures are written as SMILES. Some results are limits rather than exact numbers.
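Further: Cell-free human ACSS2 enzyme reaction with acetate, CoA and ATP, 90 min at 37 C, coupled to pyrophosphatase, phosphate release detected by Biomol Green absorbance at 620 nm.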

The target in the assay is ACSS2 (Homo sapiens, UniProt Q9NR19). Nature of the assay: biochemical.
ACSS2, sequence (Q9NR19 whole entry): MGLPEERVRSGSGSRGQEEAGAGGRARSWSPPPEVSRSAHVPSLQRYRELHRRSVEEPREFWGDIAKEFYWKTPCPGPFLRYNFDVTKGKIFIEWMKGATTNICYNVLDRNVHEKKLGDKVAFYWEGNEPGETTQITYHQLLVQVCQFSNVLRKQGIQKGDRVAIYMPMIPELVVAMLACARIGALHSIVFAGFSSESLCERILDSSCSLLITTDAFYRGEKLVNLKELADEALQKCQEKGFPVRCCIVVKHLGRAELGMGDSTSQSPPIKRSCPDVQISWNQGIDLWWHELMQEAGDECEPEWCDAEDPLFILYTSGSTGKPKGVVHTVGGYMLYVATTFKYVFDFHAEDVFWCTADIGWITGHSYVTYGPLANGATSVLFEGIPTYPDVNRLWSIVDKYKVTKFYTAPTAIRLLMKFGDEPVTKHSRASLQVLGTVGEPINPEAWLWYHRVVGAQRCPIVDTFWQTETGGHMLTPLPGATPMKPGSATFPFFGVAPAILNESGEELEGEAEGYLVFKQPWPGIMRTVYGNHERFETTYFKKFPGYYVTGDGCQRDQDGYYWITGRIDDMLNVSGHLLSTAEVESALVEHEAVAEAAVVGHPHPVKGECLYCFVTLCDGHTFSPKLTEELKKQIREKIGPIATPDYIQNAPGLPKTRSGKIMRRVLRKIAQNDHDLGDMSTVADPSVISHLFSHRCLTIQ
As to `CC1=NN(c2ccccc2)C(=O)C1C(=O)Nc1cccc(C(=O)C(F)(F)F)c1` (stereo not shown) [compound 152, 3-methyl-5-oxo-1-phenyl-N-(3-(2,2,2-trifluoroacetyl)phenyl)-4,5-dihydro-1H-pyrazole-4-carboxamide], the half-maximal inhibitory concentration (IC50) – broadly, the concentration that inhibits the measured activity by half – is 1000 to 100000 nM. As for `CCc1cccc(NC(=O)C2C(=O)N(c3ccc([N+](=O)[O-])cc3)N=C2C)c1` (stereo not shown) [compound 153, N-(3-ethylphenyl)-3-methyl-1-(4-nitrophenyl)-5-oxo-4,5-dihydro-1H-pyrazole-4-carboxamide], the figure is 100 to 1000 nM. As for `CCc1cccc(NC(=O)C2C(=O)N(c3ccc(N)cc3)N=C2C)c1` (stereo not shown) [compound 154, 1-(4-aminophenyl)-N-(3-ethylphenyl)-3-methyl-5-oxo-4,5-dihydro-1H-pyrazole-4-carboxamide], the figure is 100 to 1000 nM. As for `CCc1cccc(NC(=O)C2C(=O)N(c3ccc(NC(=O)N(C)C)cc3)N=C2C)c1` (stereo not shown) [compound 155, 1-(4-(3,3-dimethylureido)phenyl)-N-(3-ethylphenyl)-3-methyl-5-oxo-4,5-dihydro-1H-pyrazole-4-carboxamide], the figure is 100 to 1000 nM. `CCc1cccc(NC(=O)C2C(=O)N(c3ccccc3)N=C2c2ccccn2)c1` (stereo not shown) [compound 156, N-(3-ethylphenyl)-5-oxo-1-phenyl-3-(pyridin-2-yl)-4,5-dihydro-1H-pyrazole-4-carboxamide] showed an IC50 of 1000 to 100000 nM. For `CCCOc1ccc(N2N=C(C)C(C(=O)Nc3cccc(CC)c3)C2=O)cc1` (stereo not shown) [compound 158, N-(3-ethylphenyl)-3-methyl-5-oxo-1-(4-propoxyphenyl)-4,5-dihydro-1H-pyrazole-4-carboxamide] the value was 6 to 100 nM; for `CC1=NN(c2ccc(S(=O)(=O)N(C)C)cc2)C(=O)C1C(=O)Nc1cccc(-c2ccco2)c1` (stereo not shown) [compound 160, 1-(4-(N,N-dimethylsulfamoyl)phenyl)-N-(3-(furan-2-yl)phenyl)-3-methyl-5-oxo-4,5-dihydro-1H-pyrazole-4-carboxamide], 6 to 100 nM.

`CC1=NN(c2ccccc2)C(=O)C1C(=O)Nc1cccc(CC(F)(F)F)c1` (stereo not shown) [compound 161, 3-methyl-5-oxo-1-phenyl-N-(3-(2,2,2-trifluoroethyl)phenyl)-4,5-dihydro-1H-pyrazole-4-carboxamide] had an IC50 of 6 to 100 nM.

The molecule `CC1=NN(c2ccc(C(F)(F)F)cc2)C(=O)C1C(=O)Nc1cccc(-c2ccco2)c1` (stereo not shown) [compound 162, N-(3-(furan-2-yl)phenyl)-3-methyl-5-oxo-1-(4-(trifluoromethyl)phenyl)-4,5-dihydro-1H-pyrazole-4-carboxamide] registered an IC50 of 6 to 100 nM. Molecule `CC1=NN(c2cccc(C(=O)O)c2)C(=O)C1C(=O)Nc1cccc(-c2ncco2)c1` (stereo not shown) [compound 170] registered an IC50 of 6 to 100 nM. For the molecule `CC1=NN(c2cccc(C(=O)O)c2)C(=O)C1C(=O)Nc1cccc(-c2ncc[nH]2)c1` (stereo not shown) [compound 172], the IC50 fell in the range of 6 to 100 nM.

As for `CC1=NN(c2ccc(S(=O)(=O)N(C)C)cc2)C(=O)C1C(=O)Nc1cccc(-c2ncc[nH]2)c1` (stereo not shown) [compound 173, N-(3-(1H-imidazol-2-yl)phenyl)-1-(4-(N,N-dimethylsulfamoyl)phenyl)-3-methyl-5-oxo-4,5-dihydro-1H-pyrazole-4-carboxamide], the IC50 was 100 to 1000 nM. As for `CC1=NN(c2ccccc2)C(=O)C1C(=O)Nc1cccc(-c2nnc[nH]2)c1` (stereo not shown) [compound 174], the figure is 100 to 1000 nM; as for `CCNC(c1cccc(NC(=O)C2C(=O)N(c3ccccc3)N=C2C)c1)C(F)(F)F` (stereo not shown) [compound 176], 1000 to 100000 nM. For `N#Cc1ccc(OCCNC(=O)c2cccc(C(O)CO)c2)cc1` (stereo not shown) [compound 179] the value was 1000 to 100000 nM. Regarding `N#Cc1ccc(OCCNC(=O)C(N)c2ccccc2)cc1` (stereo not shown) [compound 180], the IC50 is over 100000 nM.

As to `CC1=NN(c2ccccc2)C(=O)C1C(=O)Nc1ccccc1` (stereo not shown) [compound 182, 3-methyl-5-oxo-N,1-diphenyl-4,5-dihydro-1H-pyrazole-4-carboxamide], the IC50 was in the range of 1000 to 100000 nM. `CC1=NN(c2ccccc2)C(=O)C1C(=O)Nc1cccc2ccccc12` (stereo not shown) [compound 185, 3-methyl-N-(naphthalen-1-yl)-5-oxo-1-phenyl-4,5-dihydro-1H-pyrazole-4-carboxamide] came in with an IC50 of 1000 to 100000 nM.

Regarding `COc1ccc(NC(=O)C2C(=O)N(c3ccccc3)N=C2C)cc1` (stereo not shown) [compound 188, N-(4-methoxyphenyl)-3-methyl-5-oxo-1-phenyl-4,5-dihydro-1H-pyrazole-4-carboxamide], the half-maximal inhibitory concentration (IC50) was in the range of 1000 to 100000 nM. Regarding `CC1=NN(c2ccccc2)C(=O)C1C(=O)Nc1ccc(F)cc1` (stereo not shown) [compound 189, N-(4-fluorophenyl)-3-methyl-5-oxo-1-phenyl-4,5-dihydro-1H-pyrazole-4-carboxamide], the half-maximal inhibitory concentration (IC50) lay within 1000 to 100000 nM. As for `Cc1c(C(=O)Nc2ccccc2)c(=O)n(-c2ccccc2)n1C` [compound 190, 1,5-dimethyl-3-oxo-N,2-diphenyl-2,3-dihydro-1H-pyrazole-4-carboxamide], the figure is over 100000 nM. As for `CC1=NN(c2ccccc2)C(=O)C1C(=O)Nc1cccnc1` (stereo not shown) [compound 191, 3-methyl-5-oxo-1-phenyl-N-(pyridin-3-yl)-4,5-dihydro-1H-pyrazole-4-carboxamide], the figure is 1000 to 100000 nM. As for `CC1=NN(c2ccccn2)C(=O)C1C(=O)Nc1ccccc1` (stereo not shown) [compound 192, 5-hydroxy-3-methyl-N-phenyl-1-(pyridin-2-yl)-1H-pyrazole-4-carboxamide], the figure is over 100000 nM; as for `CC1=NN(c2ccncc2)C(=O)C1C(=O)Nc1ccccc1` (stereo not shown) [compound 193, 3-methyl-5-oxo-N-phenyl-1-(pyridin-4-yl)-4,5-dihydro-1H-pyrazole-4-carboxamide], over 100000 nM; as for `CC1=NN(c2cccnc2)C(=O)C1C(=O)Nc1ccccc1` (stereo not shown) [compound 195, 3-methyl-5-oxo-N-phenyl-1-(pyridin-3-yl)-4,5-dihydro-1H-pyrazole-4-carboxamide], over 100000 nM. As to `COc1ccc(N2N=C(C)C(C(=O)Nc3ccccc3)C2=O)cc1` (stereo not shown) [compound 197, 1-(4-methoxyphenyl)-3-methyl-5-oxo-N-phenyl-4,5-dihydro-1H-pyrazole-4-carboxamide], the IC50 is 1000 to 100000 nM. For the molecule `CC1=NN(c2ccc3ccccc3c2)C(=O)C1C(=O)Nc1ccccc1` (stereo not shown) [compound 198, 5-hydroxy-3-methyl-1-(naphthalen-2-yl)-N-phenyl-1H-pyrazole-4-carboxamide], the IC50 is 1000 to 100000 nM. For `CNC(=O)C1C(=O)N(c2ccccc2)N=C1C` (stereo not shown) [compound 199, N,3-dimethyl-5-oxo-1-phenyl-4,5-dihydro-1H-pyrazole-4-carboxamide] the value was over 100000 nM. As for `CC1=NN(c2ccccc2)C(=O)C1C(=O)NC(C)C` (stereo not shown) [compound 200, N-isopropyl-3-methyl-5-oxo-1-phenyl-4,5-dihydro-1H-pyrazole-4-carboxamide], the figure is over 100000 nM; as for `CC1=NN(c2ccc(C(F)(F)F)cc2)C(=O)C1C(=O)Nc1ccccc1` (stereo not shown) [compound 201, 3-methyl-5-oxo-N-phenyl-1-(4-(trifluoromethyl)phenyl)-4,5-dihydro-1H-pyrazole-4-carboxamide], 1000 to 100000 nM; as for `CC1=NN(C2CCS(=O)(=O)C2)C(=O)C1C(=O)Nc1ccccc1` (stereo not shown) [compound 202, 1-(1,1-dioxidotetrahydrothiophen-3-yl)-3-methyl-5-oxo-N-phenyl-4,5-dihydro-1H-pyrazole-4-carboxamide], over 100000 nM. As for `CC(=O)c1ccc(NC(=O)C2C(=O)N(c3ccccc3)N=C2C)cc1` (stereo not shown) [compound 203, N-(4-acetylphenyl)-3-methyl-5-oxo-1-phenyl-4,5-dihydro-1H-pyrazole-4-carboxamide], the figure is 1000 to 100000 nM; as for `CC1=NN(c2ccccc2)C(=O)C1C(=O)N(C)c1ccccc1` (stereo not shown) [compound 204, N,3-dimethyl-5-oxo-N,1-diphenyl-4,5-dihydro-1H-pyrazole-4-carboxamide], over 100000 nM. In the case of `CC1=NN(c2ccccc2)C(=O)C1C(=O)Nc1ccc(O)cc1` (stereo not shown) [compound 205, N-(4-hydroxyphenyl)-3-methyl-5-oxo-1-phenyl-4,5-dihydro-1H-pyrazole-4-carboxamide], the IC50 fell in the range of 1000 to 100000 nM. For `CC1=NN(c2ccccc2)C(=O)C1C(=O)NC(=O)c1ccccc1` (stereo not shown) [compound 207, N-benzoyl-3-methyl-5-oxo-1-phenyl-4,5-dihydro-1H-pyrazole-4-carboxamide] the value was 1000 to 100000 nM; for `CC1=NN(c2ccccc2)C(=O)C1C(=O)Nc1ccc2c(c1)CCC2` (stereo not shown) [compound 209, N-(2,3-dihydro-1H-inden-5-yl)-3-methyl-5-oxo-1-phenyl-4,5-dihydro-1H-pyrazole-4-carboxamide], 100 to 1000 nM.

For `CC1=NN(c2ccccc2)C(=O)C1C(=O)Nc1cccc(Cl)c1` (stereo not shown) [compound 210, N-(3-chlorophenyl)-3-methyl-5-oxo-1-phenyl-4,5-dihydro-1H-pyrazole-4-carboxamide], the IC50 lay within 6 to 100 nM. `COc1cccc(NC(=O)C2C(=O)N(c3ccccc3)N=C2C)c1` (stereo not shown) [compound 211, N-(3-methoxyphenyl)-3-methyl-5-oxo-1-phenyl-4,5-dihydro-1H-pyrazole-4-carboxamide] had a half-maximal inhibitory concentration (IC50) of 6 to 100 nM.

With `CC1=NN(c2ccccc2)C(=O)C1C(=O)Nc1cccc(C)c1` (stereo not shown) [compound 212, 3-methyl-5-oxo-1-phenyl-N-(m-tolyl)-4,5-dihydro-1H-pyrazole-4-carboxamide], the IC50 fell in the range of 1000 to 100000 nM.

`CC1=NN(c2ccccc2)C(=O)C1C(=O)Nc1ccccn1` (stereo not shown) [compound 214, 3-methyl-5-oxo-1-phenyl-N-(pyridin-2-yl)-4,5-dihydro-1H-pyrazole-4-carboxamide] yielded an IC50 of over 100000 nM. The molecule `CC1=NN(c2ccccc2)C(=O)C1C(=O)Nc1ccncc1` (stereo not shown) [compound 216, 3-methyl-5-oxo-1-phenyl-N-(pyridin-4-yl)-4,5-dihydro-1H-pyrazole-4-carboxamide] came in with a half-maximal inhibitory concentration (IC50) of 1000 to 100000 nM. For `CC1=NN(c2ccccc2)C(=O)C1C(=O)Nc1nccs1` (stereo not shown) [compound 217, 3-methyl-5-oxo-1-phenyl-N-(thiazol-2-yl)-4,5-dihydro-1H-pyrazole-4-carboxamide] the value was over 100000 nM. The molecule `CC1=NN(c2ccccc2)C(=O)C1C(=O)N[C@@H](C)C(=O)O` (stereo partly drawn) [compound 218, (2S)-2-(3-methyl-5-oxo-1-phenyl-4,5-dihydro-1H-pyrazole-4-carboxamido)propanoic acid] yielded an IC50 of 1000 to 100000 nM.
